For 33 molecules, DC50 results are on record in patent EP4722209A1 (Beijing Shenogen Pharma Group, priority 2023, dated 2024).

For the test, the target named is T1, ERα (Homo sapiens, UniProt P03372).
T1 construct: host or cells: MCF-7
T1 sequence (P03372 1-595): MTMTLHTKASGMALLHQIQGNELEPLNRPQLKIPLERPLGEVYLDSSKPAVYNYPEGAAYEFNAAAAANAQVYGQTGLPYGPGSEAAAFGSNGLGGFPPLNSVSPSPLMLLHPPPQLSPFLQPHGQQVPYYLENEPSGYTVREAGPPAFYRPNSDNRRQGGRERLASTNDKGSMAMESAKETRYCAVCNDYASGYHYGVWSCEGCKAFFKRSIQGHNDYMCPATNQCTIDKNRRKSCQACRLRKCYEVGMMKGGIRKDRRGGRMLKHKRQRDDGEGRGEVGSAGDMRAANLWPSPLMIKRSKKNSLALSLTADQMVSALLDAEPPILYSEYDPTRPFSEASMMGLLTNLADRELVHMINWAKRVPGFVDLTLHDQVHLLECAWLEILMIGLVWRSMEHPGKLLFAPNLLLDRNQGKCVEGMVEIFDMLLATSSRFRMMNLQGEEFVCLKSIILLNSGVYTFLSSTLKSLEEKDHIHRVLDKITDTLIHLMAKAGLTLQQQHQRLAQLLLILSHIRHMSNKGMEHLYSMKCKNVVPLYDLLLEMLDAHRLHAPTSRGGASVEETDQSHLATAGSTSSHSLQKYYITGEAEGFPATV
The test is described as follows: ER degradation activity in MCF-7 cells (Western blot, grayscale intensity). It counts as cell-based. As to conditions: 6 hours treatment, 1 nM to 100 nM, concentration required to degrade 50% of the target protein. On the procedure: ERα-positive human breast cancer cells MCF-7 (ATCC, HTB-22) were cultured with EMEM medium (ATCC, catalog number 30-2003) containing 10% fetal bovine serum (Thermo Fisher, catalog number 10099141) and 10 µg/mL bovine insulin in 25 cm^2 or 75 cm^2 plastic tissue culture flasks in a 37 °C incubator with 5% CO2. The cells were passaged 2 to 3 times per week. MCF-7 cells were seeded in 6-well plate at 1×10^6 cells/well with 1.8 mL culture medium per well, and cultured in a 37 °C incubator with 95% air and 5% CO2. After 24 hours, the test compounds were added: the compounds were serially diluted 10-fold in DMSO starting from 10 mM (dissolved in DMSO) to prepare gradient stock solutions. A complete culture medium containing 1% DMSO was prepared for further dilution, temporarily named as the "dilution buffer." Working solutions were prepared by diluting each stock solution with 99 times the volume of dilution buffer, that is, by adding 1 µL of the 10 mM stock solution to 99 µL of the dilution buffer and mixing thoroughly.
Finally, […] of the working solution was added to the cell-seeded culture plate. The final concentration of DMSO in the cell culture medium was 0.2%, and the final concentration of the test compounds ranged from 1 nM to 100 nM. The cells were then incubated at 37 °C for 6 hours.
The culture medium was removed, and the cells were washed twice with ice cold PBS. 1 mL of PBS was added to each well, and the cells were collected into EP tubes using a cell scraper, and centrifuged at 4 °C, 4000 rpm for 5 minutes. PBS was aspirated. Total protein was extracted using the Minute™ Mammalian Tissue/Cell Total Protein Extraction Reagent. The protein concentration was measured using the BCA protein assay kit. 30 µg of protein was taken and mixed with 5× SDS-PAGE loading buffer, boiled for 10 minutes, and cooled. The samples were loaded into wells of a precast gel, with constant voltage at 80 V for 30 minutes, and then the voltage was changed to 120 V after the samples entered the resolving gel. The "sandwich" (sponge - filter paper - gel - membrane - filter paper - sponge) was assembled for Bio-Rad's Transblot. Transfer was performed for 1 hour at 0.3 amp at 4 °C. The sample was blocked with 5% fat-free milk for 1 hour, and incubated with Estrogen Receptor alpha Antibody (Thermo Fisher, catalog number MA5-14104) overnight at 4 °C. The membrane was washed with TBST to remove non-specifically bound antibodies, and then incubated with goat anti-mouse IgG-HRP secondary antibody for 1 hour at room temperature, and was visualized using ECL. The protein degradation level was calculated by measuring the grayscale intensity.
The DC50 values (i.e., the concentration of the test compounds required to degrade 50% of the target protein) were calculated and shown in Table 1. A corresponds to a DC50 value below 10 nM, B corresponds to a DC50 value greater than 10 nM and less than 100 nM, and C corresponds to DC50 values greater than 100 nM. Table 1. The DC50 values of exemplary compounds in MCF-7 cells
`CC1(C)CC(=C(c2ccc(N3CCC4(CC(N5CCN(c6ccc7c(c6)CN(C6CCC(=O)NC6=O)C7=O)CC5)C4)C3)nc2)c2ccc3[nH]nc(F)c3c2)CC(C)(C)O1` (stereo not drawn) [Compound 49] had a DC50 of more than 100 nM. `CC1(C)CC(=C(c2ccc(N3CC4(CC(N5CCN(c6ccc7c(c6)CN(C6CCC(=O)NC6=O)C7=O)CC5)C4)C3)nc2)c2ccc3[nH]nc(F)c3c2)CC(C)(C)O1` (stereo not drawn) [Compound 50] registered a DC50 of more than 100 nM.

Turning to `CC1(C)CC(=C(c2ccc(N3CC4C(CN5CCN(c6ccc7c(c6)CN(C6CCC(=O)NC6=O)C7=O)CC5)C4C3)nc2)c2ccc3[nH]nc(F)c3c2)CC(C)(C)O1` (stereo not drawn) [Compound 51], the DC50 is more than 100 nM. With `CC1(C)CC(=C(c2ccc(N3CCN(C[C@@H]4[C@H]5CN(c6ccc7c(c6)CN(C6CCC(=O)NC6=O)C7=O)C[C@@H]45)CC3)nc2)c2ccc3[nH]nc(F)c3c2)CC(C)(C)O1` (stereo partly drawn) [Compound 52] the figure was more than 100 nM; with `CC1(C)CC(=C(c2ccc(N3CCN(C4CC5(CCN(c6ccc7c(c6)CN(C6CCC(=O)NC6=O)C7=O)C5)C4)CC3)nc2)c2ccc3[nH]nc(F)c3c2)CC(C)(C)O1` (stereo not drawn) [Compound 53], more than 100 nM; with `CC1(C)CC(=C(c2ccc(N3CCC4(CC3)CC(CN3CCN(c5ccc6c(c5)CN(C5CCC(=O)NC5=O)C6=O)CC3)C4)nc2)c2ccc3[nH]nc(F)c3c2)CC(C)(C)O1` (stereo not drawn) [Compound 54], more than 100 nM.

In the case of `CC1(C)CC(=C(c2ccc3[nH]nc(F)c3c2)c2c(F)cc(N3CCC(CN4CCN(c5ccc6c(c5)CN(C5CCC(=O)NC5=O)C6=O)CC4)CC3)cc2F)CC(C)(C)O1` (stereo not drawn) [Compound 55], the DC50 was more than 100 nM. The molecule `CC1(C)CC(=C(c2ccc(N3CCC(CNC4CN(c5ccc6c(c5)CN(C5CCC(=O)NC5=O)C6=O)C4)CC3)nc2)c2ccc3[nH]nc(F)c3c2)CC(C)(C)O1` (stereo not drawn) [Compound 57] gave a DC50 of less than 10 nM.

`CC1(C)CC(=C(c2ccc(N3CCC(N4CCN(c5ccc6c(c5)CN(C5CCC(=O)NC5=O)C6=O)CC4)CC3)cc2)c2ccc3[nH]ncc3c2)CC(C)(C)O1` (stereo not drawn) [Compound 58] registered a 50% degradation concentration (DC50) of more than 100 nM. Turning to `CC1(C)CC(=C(c2ccc(N3CCC(F)(CN4CCN(c5ccc6c(c5)CN(C5CCC(=O)NC5=O)C6=O)CC4)CC3)nc2)c2ccc3[nH]nc(F)c3c2)CC(C)(C)O1` (stereo not drawn) [Compound 59], the DC50 lay within 10 to 100 nM. As to `CC1(C)CC(=C(c2ccc(OC3CCN(C4CCN(c5ccc6c(c5)CN(C5CCC(=O)NC5=O)C6=O)CC4)CC3)nc2)c2ccc3[nH]nc(F)c3c2)CC(C)(C)O1` (stereo not drawn) [Compound 60], the DC50 is more than 100 nM.

The molecule `CC1(C)CC(=C(c2ccc(N3CCC(F)(CNC4CCN(c5ccc6c(c5)CN(C5CCC(=O)NC5=O)C6=O)CC4)CC3)nc2)c2ccc3[nH]nc(F)c3c2)CC(C)(C)O1` (stereo not drawn) [Compound 61] returned a DC50 of less than 10 nM.

With `CC1(C)CC(=C(c2ccc(N3CCC4(CC3)CC(N3CCN(c5ccc6c(c5)CN(C5CCC(=O)NC5=O)C6=O)CC3)C4)cc2)c2ccc3[nH]nc(F)c3c2)CC(C)(C)O1` (stereo not drawn) [Compound 62], the DC50 was more than 100 nM. `CC1(C)CC(=C(c2ccc(N3CCC4(CC3)CC(N3CCC(c5ccc6c(c5)CN(C5CCC(=O)NC5=O)C6=O)CC3)C4)nc2)c2ccc3[nH]nc(F)c3c2)CC(C)(C)O1` (stereo not drawn) [Compound 63] yielded a 50% degradation concentration (DC50) of more than 100 nM. `CC1(C)CC(=C(c2ccc(N3CCN(C(=O)C4CCN(c5ccc6c(c5)CN(C5CCC(=O)NC5=O)C6=O)CC4)CC3)nc2)c2ccc3[nH]nc(F)c3c2)CC(C)(C)O1` (stereo not drawn) [Compound 65]: the DC50 was more than 100 nM. As to `CC1(C)CC(=C(c2ccc(N3CCN(C4CCN(c5ccc6c(c5)CN(C5CCC(=O)NC5=O)C6=O)CC4)CC3)cc2)c2ccc3[nH]ncc3c2)CC(C)(C)O1` (stereo not drawn) [Compound 66], the DC50 lay within 10 to 100 nM. In the case of `CC1(C)CC(=C(c2ccc(N3CCN(C4CCN(c5ccc6c(c5)CN(C5CCC(=O)NC5=O)C6=O)CC4)CC3)nc2)c2ccc3[nH]nc(F)c3c2)CC(C)(C)O1` (stereo not drawn) [Compound 67], the DC50 is more than 100 nM. Turning to `CC1(C)CC(=C(c2ccc(N3CCC(CN4CCC(N5Cc6cc7c(cc6C5)C(=O)N(C5CCC(=O)NC5=O)C7)CC4)CC3)nc2)c2ccc3[nH]nc(F)c3c2)CC(C)(C)O1` (stereo not drawn) [Compound 69], the 50% degradation concentration (DC50) was less than 10 nM. As for `CC1(C)CC(=C(c2ccc(N3CCC4(CC3)CN(C(=O)CN3Cc5cc6c(cc5C3)C(=O)N(C3CCC(=O)NC3=O)C6)C4)nc2)c2ccc3[nH]nc(F)c3c2)CC(C)(C)O1` (stereo not drawn) [Compound 70], the DC50 is 10 to 100 nM. With `CC1(C)CC(=C(c2ccc(N3CC4(CCN(C(=O)CN5Cc6cc7c(cc6C5)C(=O)N(C5CCC(=O)NC5=O)C7)C4)C3)nc2)c2ccc3[nH]nc(F)c3c2)CC(C)(C)O1` (stereo not drawn) [Compound 71] the figure was more than 100 nM; with `CC1(C)CC(=C(c2ccc(N3CCC4(CN(C(=O)CN5Cc6cc7c(cc6C5)C(=O)N(C5CCC(=O)NC5=O)C7)C4)C3)nc2)c2ccc3[nH]nc(F)c3c2)CC(C)(C)O1` (stereo not drawn) [Compound 72], more than 100 nM; with `CC1(C)CC(=C(c2ccc(N3CCC4(CC3)CN(C(=O)CN3Cc5cc6c(cc5C3)C(=O)N(C3CCC(=O)NC3=O)C6=O)C4)nc2)c2ccc3[nH]nc(F)c3c2)CC(C)(C)O1` (stereo not drawn) [Compound 74], more than 100 nM.

With `CC1(C)CC(=C(c2ccc(N3CCC(CN4CCN(c5cccc(N6CCC(=O)NC6=O)c5)CC4)CC3)nc2)c2ccc3[nH]nc(F)c3c2)CC(C)(C)O1` [Compound 75], the DC50 was more than 100 nM. In turn, `CC1(C)CC(=C(c2ccc(N3CCC(CN4CCN(c5ccc(N6CCC(=O)NC6=O)cc5)CC4)CC3)cc2)c2ccc3[nH]nc(F)c3c2)CC(C)(C)O1` [Compound 76] showed a DC50 of 10 to 100 nM. With `CC1(C)CC(=C(c2ccc(N3CCC(N4CCN(c5ccc(N6CCC(=O)NC6=O)cc5)CC4)CC3)cc2)c2ccc3[nH]nc(F)c3c2)CC(C)(C)O1` [Compound 78], the DC50 was more than 100 nM. In turn, `CC1(C)CC(=C(c2ccc(N3CCN(C4CCN(c5ccc(N6CCC(=O)NC6=O)cc5)CC4)CC3)cc2)c2ccc3[nH]nc(F)c3c2)CC(C)(C)O1` [Compound 81] registered a DC50 of more than 100 nM.

As for `CC1(C)CC(=C(c2ccc(N3CCN(C4CN(c5ccc(N6CCC(=O)NC6=O)cc5)C4)CC3)cc2)c2ccc3[nH]nc(F)c3c2)CC(C)(C)O1` [Compound 82], the DC50 was more than 100 nM. With `CC1(C)CC(=C(c2ccc(N3CCC(CN4CCN(c5ccc(F)c(NC6CCC(=O)NC6=O)c5)CC4)CC3)nc2)c2ccc3[nH]nc(F)c3c2)CC(C)(C)O1` (stereo not drawn) [Compound 83] the figure was less than 10 nM; with `CC1(C)CC(=C(c2ccc(N3CC4(CN(C(=O)CN5CCC(c6ccc(NC7CCC(=O)NC7=O)cc6F)CC5)C4)C3)nc2)c2ccc3[nH]nc(F)c3c2)CC(C)(C)O1` (stereo not drawn) [Compound 84], more than 100 nM; with `CC1(C)CC(=C(c2ccc(N3CCC(N4CCN(c5ccc(NC6CCC(=O)NC6=O)cc5)CC4)CC3)cc2)c2ccc3[nH]nc(F)c3c2)CC(C)(C)O1` (stereo not drawn) [Compound 86], more than 100 nM. `CC1(C)CC(=C(c2ccc(N3CCC(CN4CCN(c5ccc(NC6CCC(=O)NC6=O)cc5)CC4)CC3)cc2)c2ccc3[nH]nc(F)c3c2)CC(C)(C)O1` (stereo not drawn) [Compound 87] yielded a DC50 of more than 100 nM. On to `CC1(C)CC(=C(c2ccc(N3CCN(C4CCN(c5ccc(NC6CCC(=O)NC6=O)cc5)CC4)CC3)cc2)c2ccc3[nH]nc(F)c3c2)CC(C)(C)O1` (stereo not drawn) [Compound 91], for which the DC50 is more than 100 nM. The molecule `Cn1nc(N2CCC(=O)NC2=O)c2ccc(C3CCN(CC(=O)N4CCN(c5ccc(C(=C6CC(C)(C)OC(C)(C)C6)c6ccc7[nH]nc(F)c7c6)cn5)CC4)CC3)cc21` [Compound 92] displayed a DC50 of more than 100 nM.
